# System: HCV replicon cells
# Assay: HCV replicon FRET / luciferase assay (96-well plates)
# Assay type: cell-based
# Conditions: Hepatitis C virus, 24 h, Table 1d (class symbols); HCV replicon; read-out: EC50
# Text: FRET Assay Preparation. To perform the HCV FRET screening assay, 96-well cell culture plates were used. The FRET peptide (Anaspec, Inc.) (Taliani et al., Anal. Biochem. 1996, 240, 60-67) contains a fluorescence donor, EDANS, near one end of the peptide and an acceptor, DABCYL, near the other end. The fluorescence of the peptide is quenched by […] resonance energy transfer (RET) between the donor and the acceptor, but as the NS3 protease cleaves the peptide the products are released from RET quenching and the fluorescence of the donor becomes apparent. The assay reagent was made as follows: 5× cell Luciferase cell culture lysis reagent from Promega (#E153A) diluted to 1× with dH2O, NaCl added to 150 mM final, the FRET peptide diluted to 20 μM final from a 2 mM stock.
# To prepare plates, HCV replicon cells, with or without a Renilla luciferase reporter gene, were trypsinized and placed into each well of a 96-well plate with titrated test compounds added in columns 3 through 12; columns 1 and 2 contained a control compound (HCV protease inhibitor), and the bottom row contained cells without compound. The plates were then placed in a CO2 incubator at 37° C.
# Assays. Subsequent to addition of the test compounds described above (FRET Assay Preparation), at various times the plate was removed and Alamar blue solution (Trek Diagnostics, #00-100) was added per well as a measure of cellular toxicity. After reading in a Cytoflour 4000 instrument (PE Biosystems), plates were rinsed with PBS and then used for FRET assay by the addition of 30 ul of the FRET peptide assay reagent described above (FRET Assay Preparation) per well. The plate was then placed into the Cytoflour 4000 instrument which had been set to 340 excite/490 emission, automatic mode for 20 cycles and the plate read in a kinetic mode. Typically, the signal to noise using an endpoint analysis after the reads was at least three-fold. Alternatively, after Alamar blue reading, plates were rinsed with PBS, 50 ul of DMEM (high glucose) without phenol red was added and plates were then used for luciferase assay using the Promega Dual-Glo Luciferase Assay System.
# Compound analysis was determined by quantification of the relative HCV replicon inhibition and the relative cytotoxicity values. To calculate cytoxicity values, the average Alamar Blue fluorescence signals from the control wells were set as 100% non-toxic. The individual signals in each of the compound test wells were then divided by the average control signal and multiplied by 100% to determine […]. To calculate the HCV replicon inhibition values, an average background value was obtained from the two wells containing the highest amount of HCV protease inhibitor at the end of the assay period. These numbers were similar to those obtained from naïve Huh-7 cells.
# The background numbers were then subtracted from the average signal obtained from the control wells and this number was used as 100% activity. The individual signals in each of the compound test wells were then divided by the averaged control values after background subtraction and multiplied by 100% to determine percent activity. EC50 values for a protease inhibitor titration were calculated as the concentration which caused a 50% reduction in FRET or luciferase activity. The two numbers generated for the compound plate, percent cytoxicity and percent activity were used to determine compounds of interest for further analysis.
row,SMILES,EC50 [nM]
1,CNC(=O)c1c(-c2ccc(F)cc2)oc2ccc(-c3cc(C(=O)NC4(c5ccccn5)CC4)c(OCCn4ccnc4)cc3C)cc12,1 to 250
2,CNC(=O)c1c(-c2ccc(F)cc2)oc2ccc(-c3cc(C(=O)NC4(c5ccccn5)CC4)c(OCC4CCOCC4)cc3C)cc12,1 to 250
3,CNC(=O)c1c(-c2ccc(F)cc2)oc2ccc(-c3cc(C(=O)NC4(c5ncc(F)cn5)CC4)c(OC)cc3C)c(F)c12 [drawing 689],1 to 250
4,CNC(=O)c1c(-c2ccc(F)cc2)oc2ccc(-c3cc(C(=O)NC4(c5ccccn5)CC4)c(OCCc4ccc(OC)cc4)cc3C)cc12,1 to 250
5,CNC(=O)c1c(-c2ccc(F)cc2)oc2ccc(-c3cc(C(=O)NC4(c5ccccn5)CC4)c(OCC(=O)OC)cc3C)cc12 [drawing 642],250 to 1000
6,CNC(=O)c1c(-c2ccc(F)cc2)oc2ccc(-c3cc(C(=O)NC4(c5nccc(C)n5)CC4)ccc3C)c(F)c12,1 to 250
7,CNC(=O)c1c(-c2ccc(F)cc2)oc2ccc(-c3cc(C(=O)NC4(c5ccccn5)CC4)c(OCC4CCCCO4)cc3C)cc12 (centres unmarked),1 to 250
8,CNC(=O)c1c(-c2ccc(F)cc2)oc2ccc(-c3cc(C(=O)NC4(c5ocnc5C)CC4)ccc3C)cc12,1 to 250
9,CNC(=O)c1c(-c2ccc(F)cc2)oc2ccc(-c3cc(C(=O)NC4(c5cnccn5)CC4)ccc3C)cc12,1 to 250
10,CNC(=O)c1c(-c2ccc(F)cc2)oc2ccc(-c3cc(C(=O)NC4(c5cnccn5)CC4)c(OC)cc3C)c(F)c12,1 to 250
11,CNC(=O)c1c(-c2ccc(F)cc2)oc2ccc(-c3cc(C(=O)NC4(c5ncoc5C)CC4)c(OC)cc3C)cc12 [drawing 637],1 to 250
12,CNC(=O)c1c(-c2ccc(F)cc2)oc2ccc(-c3cc(C(=O)NC(C)(C)C)ccc3OC)c(F)c12,1 to 250
13,CNC(=O)c1c(-c2ccc(F)cc2)oc2ccc(-c3cc(C(=O)NC4(c5ccccn5)CC4)c(OCCc4ccccc4)cc3C)cc12,1 to 250
14,CNC(=O)c1c(-c2ccc(F)cc2)oc2ccc(-c3cc(C(=O)NC4(C(=O)Nc5nc(C)no5)CC4)c(OC)cc3C)cc12,1 to 250
15,CNC(=O)c1c(-c2ccc(F)cc2)oc2ccc(-c3cc(C(=O)NC4(c5ccccn5)CC4)c(OCc4ccccc4)cc3C)cc12,1 to 250
16,CNC(=O)c1c(-c2ccc(F)cc2)oc2ccc(-c3cc(C(=O)NC4(c5nccc(C)n5)CC4)c(OC)cc3C)c(F)c12,1 to 250
17,CNC(=O)c1c(-c2ccc(F)cc2)oc2ccc(-c3cc(C(=O)NC4(c5ncoc5C)CC4)ccc3C)cc12,1 to 250
18,CNC(=O)c1c(-c2ccc(F)cc2)oc2ccc(-c3cc(C(=O)NC4(c5ccccn5)CC4)c(OC4CCCCC4)cc3C)cc12,1 to 250
19,CNC(=O)c1c(-c2ccc(F)cc2)oc2ccc(-c3cc(C(=O)NC4(c5ccccn5)CC4)c(OCc4ccncc4)cc3C)cc12,1 to 250
20,CNC(=O)c1c(-c2ccc(F)cc2)oc2ccc(-c3cc(C(=O)NC4(c5cccnn5)CC4)c(OC)cc3C)c(F)c12,1 to 250
21,CNC(=O)c1c(-c2ccc(F)cc2)oc2ccc(-c3cc(C(=O)NC4(c5nc(C)cc(C)n5)CC4)ccc3C)cc12,1 to 250
22,CNC(=O)c1c(-c2ccc(F)cc2)oc2ccc(-c3cc(C(=O)NC4(c5nc(C)cc(C)n5)CC4)c(OC)cc3C)cc12,1 to 250
23,CNC(=O)c1c(-c2ccc(F)cc2)oc2ccc(-c3cc(C(=O)NC4(c5ccnnc5)CC4)c(OC)cc3C)cc12,1 to 250
24,CNC(=O)c1c(-c2ccc(F)cc2)oc2ccc(-c3cc(C(=O)NC4(c5ccncn5)CC4)c(OC)cc3C)c(F)c12,1 to 250
25,CNC(=O)c1c(-c2ccc(F)cc2)oc2ccc(-c3cc(C(=O)NC4(c5ncc(F)cn5)CC4)ccc3C)cc12,1 to 250
26,CNC(=O)c1c(-c2ccc(F)cc2)oc2ccc(-c3cc(C(=O)NC4(c5ncc(F)cn5)CC4)c(OC)cc3C)cc12,1 to 250
27,CNC(=O)c1c(-c2ccc(F)cc2)oc2ccc(-c3cc(C(=O)NC4(c5ccccn5)CC4)c(OCCCN(C)C)cc3C)cc12,1 to 250
28,CNC(=O)c1c(-c2ccc(F)cc2)oc2ccc(-c3cc(C(=O)NC4(c5ccccn5)CC4)c(OCCN4CCN(C)CC4)cc3C)cc12,1 to 250
29,CNC(=O)c1c(-c2ccc(F)cc2)oc2ccc(-c3cc(C(=O)NC4(c5ccncn5)CC4)ccc3C)c(F)c12,1 to 250

# Same assay, conditions: Hepatitis C virus, 24 h, second table titled Table 1d (numbers); HCV replicon; read-out: EC50
row,SMILES,EC50 [nM]
1,CNC(=O)c1c(-c2ccc(F)cc2)oc2ccc(-c3cc(C(=O)NC4(c5ccccn5)CC4)c(OCC(=O)OC)cc3C)cc12 [drawing 710],210
2,CNC(=O)c1c(-c2ccc(F)cc2)oc2ccc(-c3cc(C(=O)NC4(c5ccnnc5)CC4)c(OC)cc3C)c(F)c12 [drawing 715],56
3,CNC(=O)c1c(-c2ccc(F)cc2)oc2ccc(-c3cc(C(=O)NC4(c5ncoc5C)CC4)c(OC)cc3C)cc12 [drawing 709],2

# Same assay, conditions: Hepatitis C virus, Table 1a; HCV replicon; read-out: EC50
row,SMILES,EC50 [nM]
1,CNC(=O)c1c(-c2ccc(F)cc2)oc2ccc(OCC(=O)NCc3nc4ccccc4s3)cc12,1000 to 10000
2,CNC(=O)c1c(-c2ccc(F)cc2)oc2ccc(OCC(=O)NCc3ccco3)cc12,1000 to 10000

# Same assay, conditions: Hepatitis C virus, Table 1b; HCV replicon; read-out: EC50
row,SMILES,EC50 [nM]
1,CNC(=O)c1c(-c2ccc(F)cc2)oc2ccc(-c3ccc(-c4cccnc4)c(C(=O)NCC(C)C)c3)cc12,< 250
2,CNC(=O)c1c(-c2ccc(F)cc2)oc2ccc(-c3cc(C(=O)NC4(c5ccccn5)CC4)ccc3C3CC3)cc12,> 10000
3,CNC(=O)c1c(-c2ccc(F)cc2)oc2ccc(-c3cccc(C(=O)NC(C)(C)c4ccccn4)c3)cc12,< 250
4,CNC(=O)c1c(-c2ccc(F)cc2)oc2ccc(-c3cc(C(=O)NCC(C)C)ccc3OCCCN3C(=O)c4ccccc4C3=O)cc12,> 10000
5,CNC(=O)c1c(-c2ccc(F)cc2)oc2ccc(-c3cc(C(=O)NC4(c5ncc(C)s5)CC4)c(OC)cc3C)cc12,< 250
6,CNC(=O)c1c(-c2ccc(F)cc2)oc2cc(NS(C)(=O)=O)c(/C=C/C(=O)OC(C)(C)C)cc12,1000 to 10000
7,CNC(=O)c1c(-c2ccc(F)cc2)oc2ccc(-c3cc(C(=O)NC4(c5noc(-c6ccccc6)n5)CC4)ccc3C)cc12,< 250
8,CNC(=O)c1c(-c2ccc(F)cc2)oc2ccc(-c3ccc(-c4ccccc4CO)c(C(=O)NCC(C)C)c3)cc12,< 250
9,CCOc1ccc(C(=O)NCC(C)C)cc1-c1ccc2oc(-c3ccc(F)cc3)c(C(=O)NC)c2c1,< 250
10,CNC(=O)c1c(-c2ccc(F)cc2)oc2ccc(-c3cc(C(=O)NC4(c5cc(C)on5)CC4)ccc3C)cc12,< 250
11,CNC(=O)c1c(-c2ccc(F)cc2)oc2ccc(-c3cc(C(=O)NC4(c5noc(C)n5)CC4)c(OC)cc3C)cc12,< 250
12,CCCn1cc(-c2ccc(-c3ccc4oc(-c5ccc(F)cc5)c(C(=O)NC)c4c3)cc2C(=O)NCC(C)C)cn1,< 250

# Same assay, conditions: Table 1b; HCV replicon; read-out: EC50
row,SMILES,EC50 [nM]
1,CNC(=O)c1c(-c2ccc(F)cc2)oc2ccc(-c3cc(C(=O)NCC(C)C)ccc3OCCC3CNCCO3)cc12 (centres unmarked) [drawing 567],< 250

# — US8309558B2, “Compounds for the treatment of hepatitis C” (Bristol-Myers Squibb Company, priority 2008, dated 2012)
